Source: patent US20100204112A1, “USE OF TYR-W-MIF-1 AND UROCORTIN 2 AS THERAPEUTIC AGENTS” (priority 2007, published 2010)
Where no end group is shown, it is not given here.

Legend:
HIV-1IIIB = test: HIV-1 antiviral assay in CEM-SS cells (MTS readout)
[1] = tested on: hepatitis B virus (HBV) ayw strain; test: HBV experimental assay system (HepG2-2.2.15, TaqMan PCR of secreted HBV DNA); format: cell-based; conditions: 10 micrograms per ml; HepG2-2.2.15 cells; six days; HBV DNA by TaqMan PCR
Text: HepG2-2.2.15 is a stable cell line containing the hepatitis B virus (HBV) ayw strain genome (ATCC Cat. No. CRL-11997). Antiviral compounds blocking any late step of viral replication such as transcription, translation, pregenome encapsidation, reverse transcription, particle assembly and release can be identified and characterized using this cell line. In this assay, an active compound will reduce the production of secreted HBV from cells, measured by utilizing real time quantitative PCR (TaqMan) assay to directly and accurately measure HBV DNA copies.
HepG2-2.2.15 cells were plated in 96-well microtiter plates. After 16-24 hours the confluent monolayer of HepG2-2.2.15 cells was washed and the medium was replaced with complete medium containing test peptides—10 micrograms per ml—in duplicate. […] Six days following the initial administration of the peptides, the cell culture supernatants was collected, treated with pronase and DNAse and then used in a real-time quantitative TaqMan PCR assay. The PCR-amplified HBV DNA was detected in real-time by monitoring increases in fluorescence signals that result from the exonucleolytic degradation of a quenched fluorescence probe molecule that hybridizes to the amplified HBV DNA. […] Antiviral activity was calculated from the reduction in HBV DNA levels (% virus control). […]

spleen cells = test: Th1/Th2 cytokine profiling assay (Ovalbumin-restimulated spleen cells, CBA Kit); format: cell-based, Balb/c mice; conditions: 10 micrograms per ml; Ovalbumin restimulation; 72 hours
Text: The Balb/c mice (originated in 1923, it is a popular strain and is used in many different research disciplines. Also classified as an inbred from the production of 20 or more successive brother-sister matings, the Balb/c mouse is albino and small in size) were immunized on Days 1, 15, and 29 with Ovalbumin (Ovalbumin is the main protein found in egg white, commonly used to stimulate an immunological reaction in test animals) in PBS (5 micrograms/injection). On day 50, spleens of the mice were harvested (3 weeks after last boost with Ovalbumin). […] Thereafter, additional Ovalbumin was added to the cells at 10 micrograms/ml for in vitro restimulation of the cells. 72 hours later, cell supernatants were harvested and assayed using the Becton Dickinson Mouse Th1/Th2 Cytokine CBA Kit. This kit can be used to measure Interleukin-2 (IL-2), Interleukin-4 (IL-4), Interleukin-5 (IL-5), Interferon-γ (IFN-γ), and Tumor Necrosis Factor-α (TNF-α) protein levels in a single sample.

[2] = tested on: Primary Human endothelial cells (HUVEC); test: Endothelial cell migration assay; conditions: 10 micrograms per ml, 22 hours, combination peptide 1:peptide 2 0.95 mole:1.05 mole
Procedure: Primary Human endothelial cells (HUVEC) were seeded in insert chambers with 3 micrometer pore size of multi-transwell plate for 6 hours at 37° C. in Endothelial Cell Basal Medium (EBM) supplemented with 0.1% bovine serum albumin. Thereafter, designated concentration of testing peptides -10 micrograms per ml—was added in duplicate wells. The endothelia were allowed to migrate for 22 hours at 37° C., then, migrated cells were fixed and stained with Hoechst 33342 dye. Images of 3 fields per insert were taken and the number of migrated cells per field were quantified using the ImageProPlus software. Data were analyzed for the average number of the migrated cells and standard deviation of six data points for each treatment condition. […] Statistic p values were computed using the Student's t-test.

HUVEC = test: Endothelial tube formation assay; conditions: 10 micrograms per ml, 20 hours, combination peptide 1:peptide 2 0.95 mole:1.05 mole
Procedure: The endothelial tube formation assay is based on the ability of endothelial cells to form three-dimensional capillary-like tubular structures when cultured on a gel of basement membrane extract. […] Pre-labeled HUVEC with Calcein AM were seeded in a 96-well culture plate coated with extracellular metrix (Chemicon international Cat. ECM625) and treated with test peptides—10 micrograms per ml—in full growth medium. Positive control was vehicle only. The endothelial cells were allowed to form tubes foe 20 hours and were then examined under an inverted fluorescent microscope. Duplicate wells for each treatment were photographed and quantitatevily analyzed for an average tubule length using image analysis software ImageProPlus. Raw data were expressed as average tubule lengths in pixels ±standard deviation. Statistic p values were computed using the Student's t-test.

HCMV strain AD169 = test: HCMV plaque formation assay in MRC-5 cells; conditions: 10 micrograms per ml, 7-10 days
RAW 264.7 cells = test: Phagocytosis assay (Fluorescein-labeled Escherichia coli, flow cytometry); conditions: 10 micrograms per ml, combination peptide 1:peptide 2 1.10 mole:0.90 mole
Procedure: RAW 264.7 (Mouse leukaemic monocyte macrophage cell line) cells were obtained from ATCC and grown in RPMI 1640 medium containing 10% FBS. Cells were incubated in 12×75 mm tubes at 37° C. with test peptides—10 micrograms per ml—for 30 min prior to adding Fluorescein-labeled Escherichia coli bacteria as the agent to be ingested. After the cells were incubated for additional 60 min at 37° C. and allowed to ingest the Fluorescein-labeled Escherichia coli bacteria, cells were fixed with 1% paraformaldehyde. The samples were then analyzed by flow cytometry to determine the amount of phagocytosis as a function of brightness (the greater the phagocytic activity, the more fluorescence in the macrophage population). Data are reported as % positive and the mean fluorescence intensity (MFI) of positively stained cells.

| Compound | antiviral activity of positive control compounds (HIV-1) (HIV-1IIIB) | inhibition of HBV replication as compared to the virus control infection [1] | IFNγ spleen cells; TH1 response (% of control) (spleen cells) | IL-2 spleen cells (% of control) (spleen cells) | IL-4 spleen cells; TH2 response (% of control) (spleen cells) | IL-5 spleen cells; TH2 response (% of control) (spleen cells) | TNF-a spleen cells; TH1 response (% of control) (spleen cells) | inhibition of the migration of human endothelial cells [2] | inhibition of the tube formation of endothelial cells (HUVEC) | inhibition of HCMV plaque formation as compared to the virus control (HCMV strain AD169) | effect on the phagocytic activity of murine macrophages (increase) (RAW 264.7 cells) |
| --- | --- | --- | --- | --- | --- | --- | --- | --- | --- | --- | --- |
| Cc1cn([C@H]2C[C@H](N=[N+]=[N-])[C@@H](CO)O2)c(=O)[nH]c1=O [AZT] | expected levels of antiviral activity | – | – | – | – | – | – | – | – | – | – |
| CC(C)(C)NC(=O)[C@@H]1CN(Cc2cccnc2)CCN1C[C@@H](O)C[C@@H](Cc1ccccc1)C(=O)N[C@H]1c2ccccc2C[C@H]1O [indinavir] | expected levels of antiviral activity | – | – | – | – | – | – | – | – | – | – |
| His-Pro-Gly-Ser-Arg-Ile-Val-Leu-Ser-Leu-Asp-Val-Pro-Ile-Gly-Leu-Leu-Gln-Ile-Leu-Leu-Glu-Gln-Ala-Arg-Ala-Arg-Ala-Ala-Arg-Glu-Gln-Ala-Thr-Thr-Asn-Ala-Arg-Ile-Leu-Ala-Arg-Val-NH2 (HPGSRIVLSLDVPIGLLQILLEQARARAAREQATTNARILARV-NH2) [Peptide 2] | – | no effect | 105.6 % of control | 66.8 % of control | 68.9 % of control | 67.0 % of control | 125.6 % of control | 15% | 35% | did not inhibit | 31.4% |
| Tyr-Pro-Trp-Gly-NH2 (YPWG-NH2) [Peptide 1] | – | 14.7% | 62.0 % of control | 83.2 % of control | 77.4 % of control | 57.1 % of control | 82.3 % of control | did not inhibit | 40% | did not inhibit | no inhibitory or activating effects |
